Eleven compounds from ChEMBL document CHEMBL1201862, “PubChem BioAssay data set” (2004) can be followed below.

Test systems include RXF 393; IGROV-1; SF-268; PC-3; SW-620; NCI-H460; SK-MEL-28; SK-MEL-2; EKVX; SNB-19; OVCAR-3; HCT-116; ACHN; UACC-257; U-251; MDA-MB-231; HOP-62; UACC-62; HCC 2998.
What all share (assay): NCI tumour cell line growth inhibition, 48 h

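Results reflect a 48-hour exposure of cells in 96-well plates to compound at five concentrations. GI50 = concentration required for 50% inhibition of growth.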 Calls of active or inactive are those of the source. Rule as the data show it: active = GI50 up to about 1.1 µM and inactive = higher. Peptide text beside a SMILES is read from it. * marks the point of attachment. OSu = O=C1CCC(=O)N1O* A value given as a limit tells only on which side of the number the result lay.

Regarding `CCCCCCCCCCCCCCCCNC(=O)/C(=C\c1ccc(Cl)c(Cl)c1)NC(=O)c1ccccc1`, the GI50 in the experiment with RXF 393 was 15.7 µM (inactive); in the experiment with IGROV-1, 16.8 µM (inactive); in the experiment with SF-268 it was 46.9 µM (inactive); in the experiment on PC-3, 26.5 µM (inactive); with SW-620, 31.7 µM (inactive); in the experiment on NCI-H460, 36.6 µM (inactive). The GI50 in the experiment on SK-MEL-28 was 70.1 µM (inactive); in the experiment with SK-MEL-2, > 100 µM (inactive); with EKVX it was 44.3 µM (inactive); in the experiment with SNB-19 it was 46.3 µM (inactive); with OVCAR-3 it was > 100 µM (inactive); in the experiment on HCT-116 it was 37.9 µM (inactive). Moreover, the GI50 in the experiment with ACHN is 47.4 µM (inactive); in the experiment with UACC-257 it was > 100 µM (inactive); in the experiment on U-251, 35.4 µM (inactive); in the experiment on MDA-MB-231, 18 µM (inactive); in the experiment with HOP-62, 21.4 µM (inactive).

Consider `C/C(=N/NC(=S)NCCc1ccccn1)c1cnccn1`, for which the GI50 in the experiment on IGROV-1 is 19 µM (inactive); with SF-268 it was 38.5 µM (inactive); with PC-3, 48.8 µM (inactive); with UACC-62 it was 18.3 µM (inactive); in the experiment with SW-620, 11.9 µM (inactive); with NCI-H460, 52.5 µM (inactive). Besides, the GI50 was 31 µM (inactive) in the experiment with SK-MEL-28; > 100 µM (inactive) in the experiment on SK-MEL-2; 10.9 µM (inactive) in the experiment on EKVX; 54.7 µM (inactive) in the experiment on SNB-19; 32.1 µM (inactive) in the experiment with OVCAR-3; 23.2 µM (inactive) in the experiment with HCT-116. Besides, the GI50 is 20.7 µM (inactive) in the experiment with ACHN; 35.6 µM (inactive) in the experiment on UACC-257; 20.2 µM (inactive) in the experiment with U-251; 40.4 µM (inactive) in the experiment with HCC 2998; 26.2 µM (inactive) in the experiment on MDA-MB-231; 31.2 µM (inactive) in the experiment on HOP-62.

As for `O=C(O)C1CCCCC1C(=O)Nc1nc2ccccc2[nH]1` (stereo not given), the GI50 in the experiment with RXF 393, with IGROV-1, in the experiment on SF-268, in the experiment with PC-3, with UACC-62 and with SW-620 was > 100 µM (inactive) throughout. The GI50 is > 100 µM (inactive) in the experiment with NCI-H460; > 100 µM (inactive) with SK-MEL-28; > 100 µM (inactive) in the experiment on SK-MEL-2; 63 µM (inactive) in the experiment on EKVX; > 100 µM (inactive) with SNB-19; > 100 µM (inactive) in the experiment with OVCAR-3. The GI50 in the experiment on HCT-116, in the experiment with ACHN, with UACC-257, in the experiment with U-251, in the experiment on MDA-MB-231 and in the experiment on HOP-62 was > 100 µM (inactive) each time.

On to `CSC1=C(C#N)C(=S)N=C(N)C1C(=O)Nc1ccc(C)cc1` (stereo not given), for which the GI50 in the experiment on RXF 393, with IGROV-1, in the experiment with SF-268, in the experiment with PC-3, with UACC-62 and with SW-620 was > 100 µM (inactive) in each case. Moreover, the GI50 with NCI-H460, in the experiment on SK-MEL-28, with SK-MEL-2, with EKVX, with SNB-19 and in the experiment with OVCAR-3 was > 100 µM (inactive) throughout. For the same compound, the GI50 in the experiment on HCT-116 is 81.5 µM (inactive); in the experiment on UACC-257, > 100 µM (inactive); in the experiment on U-251, > 100 µM (inactive); in the experiment on HCC 2998, > 100 µM (inactive); in the experiment on MDA-MB-231 it was > 100 µM (inactive).

As for `CC1(C)CN(c2ccccc2)C(=O)C1OC(=O)[C@@]1(C)C[C@@H]2C=C[C@H]1C2` (stereo not given in full), the GI50 with RXF 393 was 17.9 µM (inactive); in the experiment with IGROV-1 it was 16.9 µM (inactive); in the experiment on SF-268 it was 27.5 µM (inactive); in the experiment with PC-3, 30 µM (inactive); with UACC-62 it was 18 µM (inactive); in the experiment with SW-620 it was 33.3 µM (inactive). For the same compound, the GI50 was 23 µM (inactive) in the experiment with NCI-H460; 18.1 µM (inactive) in the experiment with SK-MEL-28; 17.8 µM (inactive) in the experiment on SK-MEL-2; 28.4 µM (inactive) in the experiment with EKVX; 28.8 µM (inactive) in the experiment with SNB-19; 39.4 µM (inactive) with OVCAR-3. Moreover, the GI50 in the experiment on HCT-116 was 19.5 µM (inactive); in the experiment on ACHN, 34.5 µM (inactive); in the experiment with UACC-257 it was 24.5 µM (inactive); in the experiment with U-251, 19.2 µM (inactive); in the experiment on MDA-MB-231, 24.5 µM (inactive); with HOP-62, 22.4 µM (inactive).

For the compound `NCCCCC(NC(=O)C(N)Cc1ccc(O)cc1)C(=O)NC(Cc1ccc(O)cc1)C(=O)NC(CCCCN)C(=O)ON1C(=O)CCC1=O` (stereo not given) (H-YKYK-OSu; configuration not given here), the GI50 in the experiment with RXF 393, in the experiment with IGROV-1, in the experiment on PC-3, in the experiment with UACC-62, in the experiment with SW-620 and in the experiment with NCI-H460 was > 100 µM (inactive) each time. The GI50 with SK-MEL-28, in the experiment with SK-MEL-2, in the experiment on EKVX, with SNB-19, in the experiment with HCT-116 and in the experiment with ACHN was > 100 µM (inactive) throughout. The GI50 in the experiment on UACC-257, in the experiment with U-251, in the experiment on HCC 2998, in the experiment on MDA-MB-231 and with HOP-62 was > 100 µM (inactive) throughout.

With `CCCCOc1c(C(=O)O)cc(Br)cc1C(=O)O`, the GI50 in the experiment on RXF 393, in the experiment on IGROV-1, with SF-268, in the experiment on PC-3, in the experiment on SW-620 and in the experiment on NCI-H460 was > 100 µM (inactive) throughout. Also, the GI50 in the experiment with SK-MEL-28 was > 100 µM (inactive); in the experiment on SK-MEL-2 it was > 100 µM (inactive); in the experiment with EKVX, > 100 µM (inactive); in the experiment with SNB-19, > 100 µM (inactive); in the experiment on OVCAR-3, > 100 µM (inactive); in the experiment on HCT-116, 91.6 µM (inactive). Also, the GI50 in the experiment with ACHN, in the experiment with UACC-257, in the experiment with U-251, in the experiment with HCC 2998, with MDA-MB-231 and with HOP-62 was > 100 µM (inactive) each time.

Take `Cn1cnc2c(NCc3ccccc3)nc(NCCO)nc21` [OLOMOUCINE]: the GI50 in the experiment on RXF 393 is 67 µM (inactive); in the experiment on IGROV-1, 42.3 µM (inactive); in the experiment with SF-268, 49 µM (inactive); with PC-3, 98.2 µM (inactive); with UACC-62, 32.6 µM (inactive); with SW-620, 43.5 µM (inactive). The GI50 in the experiment on NCI-H460 was 104 µM (inactive); with SK-MEL-28, 52.8 µM (inactive); in the experiment on SK-MEL-2, 98.9 µM (inactive); with EKVX, 94.4 µM (inactive); with SNB-19 it was 48.6 µM (inactive); in the experiment with HCT-116, 34.8 µM (inactive). Moreover, the GI50 in the experiment on ACHN is 35.9 µM (inactive); with UACC-257, > 95.3 µM (inactive); in the experiment with U-251, 64.4 µM (inactive); in the experiment on HCC 2998, 79.1 µM (inactive); in the experiment on MDA-MB-231, 92.7 µM (inactive); in the experiment on HOP-62 it was 29.3 µM (inactive).

As to `C=C1C(=O)O[C@H]2[C@H]([C@H](C)CCCC(C)=O)O[C@H]([C@@]3(C)CCC(=O)O3)C[C@@H]12`, the GI50 with IGROV-1 is > 100 µM (inactive); with SF-268, 0.0316 µM (active); with PC-3 it was > 100 µM (inactive); in the experiment with UACC-62, 66.5 µM (inactive); in the experiment on SW-620 it was 46.3 µM (inactive); in the experiment with NCI-H460, > 100 µM (inactive). For the same compound, the GI50 was > 100 µM (inactive) with SK-MEL-28; > 100 µM (inactive) in the experiment on SK-MEL-2; 79.3 µM (inactive) with EKVX; > 100 µM (inactive) in the experiment with SNB-19; 56.1 µM (inactive) in the experiment on OVCAR-3; 22.3 µM (inactive) in the experiment with HCT-116. In addition, the GI50 was 46.9 µM (inactive) with ACHN; 77.1 µM (inactive) in the experiment with UACC-257; > 100 µM (inactive) in the experiment on U-251; 68.1 µM (inactive) with HCC 2998; > 100 µM (inactive) in the experiment with MDA-MB-231; > 100 µM (inactive) in the experiment on HOP-62.

Consider `CC1(C)COC(c2cccc(C3=NC(C)(C)CO3)c2Br)=N1`, for which the GI50 is > 100 µM (inactive) in the experiment with RXF 393; > 100 µM (inactive) with IGROV-1; > 100 µM (inactive) in the experiment on SF-268; > 100 µM (inactive) in the experiment on PC-3; 7.48 µM (inactive) with UACC-62; > 100 µM (inactive) in the experiment with SW-620. The GI50 with NCI-H460, with SK-MEL-28, in the experiment with SK-MEL-2, in the experiment on EKVX, with SNB-19 and in the experiment on HCT-116 was > 100 µM (inactive) throughout. Also, the GI50 in the experiment on ACHN, with UACC-257, in the experiment on U-251, in the experiment on HCC 2998, in the experiment with MDA-MB-231 and with HOP-62 was > 100 µM (inactive) in each case.

As for `Nn1c(CCCCCCCCc2nnc(COc3ccccc3)n2N)nnc1COc1ccccc1`, the GI50 with RXF 393, in the experiment with IGROV-1, with SF-268, with PC-3, in the experiment on UACC-62 and in the experiment on SW-620 was > 100 µM (inactive) in each case. In addition, the GI50 with NCI-H460, in the experiment on SK-MEL-28, in the experiment with SK-MEL-2, in the experiment with EKVX, in the experiment on SNB-19 and in the experiment on HCT-116 was > 100 µM (inactive) in each case. Moreover, the GI50 in the experiment with ACHN, with UACC-257, with U-251, in the experiment with HCC 2998, in the experiment on MDA-MB-231 and with HOP-62 was > 100 µM (inactive) in each case.
